From patent US20130172246A1, “INSULIN GLARGINE VERSUS METFORMIN FOR THE FIRST-LINE TREATMENT OF EARLY TYPE-2 DIABETES” (priority 2011, published 2013)
Like-named read-outs stand apart in the source and are kept apart here.

Assays:
type 2 diabetes patients [1] = test: Parameters of beta-cell function (insulin, proinsulin, C-peptide, HOMA) fasting and 2 h after test meal; assay type: in vivo, human; conditions: for ratio of proinsulin to C-peptide: after treatment, indicating improvement in beta-cell function; for Insulin-C-peptide ratio - change, 2 h after test meal / Insulin-C-peptide ratio - change, Fasting / Proinsulin-C-peptide ratio - change, 2 h after test meal / Proinsulin-C-peptide ratio - change, Fasting / HOMA - change / Insulin-proinsulin ratio - change, 2 h after test meal / Insulin-proinsulin ratio - change, Fasting / C-peptide - change, 2 h after test meal / C-peptide - change, Fasting / Insulin - change, 2 h after test meal / Insulin - change, Fasting / Proinsulin - change, 2 h after test meal / Proinsulin - change, Fasting / Insulin-C-peptide ratio - visit 8, 2 h after test meal / Insulin-C-peptide ratio - visit 8, Fasting / Proinsulin-C-peptide ratio - visit 8, 2 h after test meal / Proinsulin-C-peptide ratio - visit 8, Fasting / HOMA - visit 8 / Insulin-proinsulin ratio - visit 8, 2 h after test meal / Insulin-proinsulin ratio - visit 8, Fasting / C-peptide - visit 8, 2 h after test meal / C-peptide - visit 8, Fasting / Insulin - visit 8, 2 h after test meal / Insulin - visit 8, Fasting / Proinsulin - visit 8, 2 h after test meal / Proinsulin - visit 8, Fasting: per protocol; for Insulin-C-peptide ratio - change, 2 h after test meal / Insulin-C-peptide ratio - change, Fasting / Proinsulin-C-peptide ratio - change, 2 h after test meal / Proinsulin-C-peptide ratio - change, Fasting / HOMA - change / Insulin-proinsulin ratio - change, 2 h after test meal / Insulin-proinsulin ratio - change, Fasting / C-peptide - change, 2 h after test meal / C-peptide - change, Fasting / Insulin - change, 2 h after test meal / Insulin - change, Fasting / Proinsulin - change, 2 h after test meal / Proinsulin - change, Fasting: change visit 1 to visit 8; for Insulin-C-peptide ratio - change, 2 h after test meal / Insulin-C-peptide ratio - change, Fasting / Proinsulin-C-peptide ratio - change, 2 h after test meal / Proinsulin-C-peptide ratio - change, Fasting / Insulin-C-peptide ratio - visit 8, 2 h after test meal / Insulin-C-peptide ratio - visit 8, Fasting / Proinsulin-C-peptide ratio - visit 8, 2 h after test meal / Proinsulin-C-peptide ratio - visit 8, Fasting: mean; for HOMA - change / Insulin-proinsulin ratio - change, 2 h after test meal / Insulin-proinsulin ratio - change, Fasting / C-peptide - change, 2 h after test meal / C-peptide - change, Fasting / Insulin - change, 2 h after test meal / Insulin - change, Fasting / Proinsulin - change, 2 h after test meal / Proinsulin - change, Fasting / HOMA - visit 8 / Insulin-proinsulin ratio - visit 8, 2 h after test meal / Insulin-proinsulin ratio - visit 8, Fasting / C-peptide - visit 8, 2 h after test meal / C-peptide - visit 8, Fasting / Insulin - visit 8, 2 h after test meal / Insulin - visit 8, Fasting / Proinsulin - visit 8, 2 h after test meal / Proinsulin - visit 8, Fasting: mean (SD); for C-peptide - change, 2 h after test meal / C-peptide - change, Fasting / Insulin - change, 2 h after test meal / Insulin - change, Fasting / Proinsulin - change, 2 h after test meal / Proinsulin - change, Fasting / C-peptide - visit 8, 2 h after test meal / C-peptide - visit 8, Fasting / Insulin - visit 8, 2 h after test meal / Insulin - visit 8, Fasting / Proinsulin - visit 8, 2 h after test meal / Proinsulin - visit 8, Fasting: unit as in Table 4; for Insulin-C-peptide ratio - visit 8, 2 h after test meal / Insulin-C-peptide ratio - visit 8, Fasting / Proinsulin-C-peptide ratio - visit 8, 2 h after test meal / Proinsulin-C-peptide ratio - visit 8, Fasting / HOMA - visit 8 / Insulin-proinsulin ratio - visit 8, 2 h after test meal / Insulin-proinsulin ratio - visit 8, Fasting / C-peptide - visit 8, 2 h after test meal / C-peptide - visit 8, Fasting / Insulin - visit 8, 2 h after test meal / Insulin - visit 8, Fasting / Proinsulin - visit 8, 2 h after test meal / Proinsulin - visit 8, Fasting: week 36
Experimental: (§1) Below is a list of the various target parameters: • Protection of the β-cells by early insulin therapy • C-Peptide (fasting and 2 h pp after TM) • Proinsulin (fasting and 2 h pp after TM) • Glycemic variability: • Glycemic load • Standard deviation (SD), • MAGE • HbA1c • Anti-inflammatory action of insulin: • Biomarkers of subclinical inflammation (fasting and 2 h pp) • hsCRP, • PAI-1, • Leukocyte count • Back-up samples for determining • MMP9 • ADMA • Adiponectin • Effect on endothelial function • Endothelial function at ball of thumb using laser Doppler (O2C) • Effect on renal function • Microalbuminuria (albumin/creatinine ratio) • Serum creatinine • Risk of hypoglycemia • Hypoglycemic intervals (time<3 mmol glucose) during CGM over 48 hours (day 2+3 after TM) • Free fatty acids
Test meal: On the morning of the 2nd day of the CGM, there is a standardized test meal in the trial center. This test meal (TM) consists of 95 g of whole-wheat bread, 20 g of margarine, 25 g of fruit preserves, 25 g of cheese, 200 ml of orange juice, 200 ml of milk mix with banana, strawberry or cocoa with a total of 560 Kcal. Blood is taken from the patient prior to the TM (after night-time fasting period of at least 8 hours). Subsequently, the TM should be eaten within 15 min. From the 1st bite, the time is measured, and after 2 h have elapsed, a 2nd blood collection is performed. During the TM and during the two hours thereafter, the patient should move as little as possible so as not to falsify the monitoring.
• HbA1c chromatographically by HLPC (device: TOSOH A1c) • Plasma glucose by enzymatic UV test HK (device: Selectra) • Creatinine in urine by PAP test (enzyme-photometrically) (device: Selectra) • Albumin in urine (spontaneous) by immunoturbidimetric method (device: Selectra) • Microalbuminuria (calculated: albumin/creatinine ratio) • Serum creatinine enzyme-photometrically by means of creatinine PAP test (device: Selectra) • ALAT, ASAT by optimized UV method according to IFCC (device: Selectra) • Insulin by ELISA (solid-phase enzyme immunoassay; device: Anthos) • C-peptide by ELISA (solid-phase enzyme immunoassay; device: Anthos) • Proinsulin (intact) (solid-phase enzyme immunoassay; device: Anthos) • Triglycerides by GPO-PAP method (device: Selectra) • HDL cholesterol by enzymatic test (device: Selectra) • LDL cholesterol by enzymatic test (device: Selectra) • Free fatty acids by photometric method (NEFA) (device: Selektra) • hsCRP by immunoturbidimetric method (device: Selectra) • PAI-1 (plasminogen activator inhibitor active antigen) bioimmunoassay • Leukocyte count by electronic counting • Pregnancy test (urine dipstick)
In the study in the previous examples, 75 patients (45 men, 30 women, mean age: 60.7±9.2 years) were examined, whose first diagnosis of type 2 diabetes dated back to less than 5 years and whose HbA1c level was between 6.5 and 8.5%. The patients were treated with either metformin (MET, 1000 mg b.i.d. (n=3)) or insulin glargine (GLA) q.d. just before bedtime (n=3). The insulin dose was adjusted for a target plasma glucose concentration (FPG) of ≦5.6 mmol/L according to a standardized titration algorithm. At the start and end of the study, the HbA1c level and the plasma glucose, proinsulin and C-peptide concentrations were determined. […] All the patients received a standardized test meal on the second day of the continuous glucose monitoring for comparison of the interindividual postprandial (pp) glucose excursions.

type 2 diabetes patients [2] = conditions: cited from earlier work
[3] = Body weight, BMI, abdominal and hip measurement in the clinical trial
Experimental: (§2) • Checking the inclusion/exclusion criteria • Physical examination • Measuring body weight, waist/hip measurement, blood pressure, pulse • Recording the change in concomitant medication and concomitant conditions • Recording AEs and SAEs • Applying the CGMS for up to 72 h, briefing and training the patient • Randomization: • Group A: Titrating insulin glargine to target level of fasting plasma glucose (5.6 mmol/l (100 mg/dl)) • Briefing and training the patients in insulin use (Depending on the organization, training measures can be implemented during the overall visit 1 a-c.) • Group B: 500 mg of metformin tid • Pregnancy test, if applicable. • Laser Doppler measurement; only at center 01 and 02
(§3) • Recording the change in concomitant medication • Recording AEs and SAEs • Physical examination • Measuring body weight, waist/hip measurement, blood pressure, pulse • Applying the CGMS for up to 72 h, briefing and training the patient • Drug accountability/compliance (registering the used-up medication) • Laser Doppler measurement, only at center 01 and 02

type 2 diabetes patients [4] = test: Pilot study with insulin glargine with a CGMS; assay type: in vivo, human; conditions: compared to metformin
[5] = human, in vivo
Experimental: as §2, §3

type 2 diabetes patients [6] = conditions: background statement; cited from earlier work
type 2 diabetes patients [7] = test: Hypoglycemic events and low interstitial glucose periods during CGM; assay type: in vivo, human; conditions: early treatment with GLA vs. MET
Experimental: as §1, with “acids […]” for “acids”

type 2 diabetes patients [8] = conditions: ORIGIN-CGMS substudy, cited from earlier work
[9] = per protocol, change visit 1 to visit 8, mean (SD), unit as in Table 4

CN(C)C(=N)N=C(N)N [Metformin]
ratio of proinsulin to C-peptide (type 2 diabetes patients [1]): significant reduction | Insulin-C-peptide ratio - change, 2 h after test meal (type 2 diabetes patients [1]): −38956.8 | Insulin-C-peptide ratio - change, Fasting (type 2 diabetes patients [1]): −25386.1 | Proinsulin-C-peptide ratio - change, 2 h after test meal (type 2 diabetes patients [1]): −1668.7 | Proinsulin-C-peptide ratio - change, Fasting (type 2 diabetes patients [1]): −1386.3 | HOMA - change (type 2 diabetes patients [1]): 4.4 (19.5) | Insulin-proinsulin ratio - change, 2 h after test meal (type 2 diabetes patients [1]): 3.0 (8.4) | Insulin-proinsulin ratio - change, Fasting (type 2 diabetes patients [1]): 2.9 (7.6) | C-peptide - change, 2 h after test meal (type 2 diabetes patients [1]): −0.1 (2.0) nmol/l | C-peptide - change, Fasting (type 2 diabetes patients [1]): −0.3 (0.8) nmol/l | Insulin - change, 2 h after test meal (type 2 diabetes patients [1]): −11.1 (30.2) mU/l | Insulin - change, Fasting (type 2 diabetes patients [1]): −2.7 (3.6) mU/l | Proinsulin - change, 2 h after test meal (type 2 diabetes patients [1]): −6.9 (14.5) pmol/l | Proinsulin - change, Fasting (type 2 diabetes patients [1]): −3.2 (4.2) pmol/l | Insulin-C-peptide ratio - visit 8, 2 h after test meal (type 2 diabetes patients [1]): 41915.2 | Insulin-C-peptide ratio - visit 8, Fasting (type 2 diabetes patients [1]): 25456.9 | Proinsulin-C-peptide ratio - visit 8, 2 h after test meal (type 2 diabetes patients [1]): 2458.1 | Proinsulin-C-peptide ratio - visit 8, Fasting (type 2 diabetes patients [1]): 2142.4 | HOMA - visit 8 (type 2 diabetes patients [1]): 56.3 (34.5) | Insulin-proinsulin ratio - visit 8, 2 h after test meal (type 2 diabetes patients [1]): 24.7 (27.1) | Insulin-proinsulin ratio - visit 8, Fasting (type 2 diabetes patients [1]): 16.7 (17.4) | C-peptide - visit 8, 2 h after test meal (type 2 diabetes patients [1]): 7.9 (3.4) nmol/l | C-peptide - visit 8, Fasting (type 2 diabetes patients [1]): 2.7 (1.1) nmol/l | Insulin - visit 8, 2 h after test meal (type 2 diabetes patients [1]): 50.8 (39.7) mU/l | Insulin - visit 8, Fasting (type 2 diabetes patients [1]): 10.0 (6.0) mU/l | Proinsulin - visit 8, 2 h after test meal (type 2 diabetes patients [1]): 20.4 (19.9) pmol/l | Proinsulin - visit 8, Fasting (type 2 diabetes patients [1]): 5.8 (4.6) pmol/l | patients additionally receiving sulfonylureas or other combinations with oral antidiabetics (type 2 diabetes patients [2]; after one to two years, UK-PDS and DIG study): over 50% | patients with stomach complaints, disturbances in appetite and, very rarely, allergies (type 2 diabetes patients [2]; background statement): approximately 10% | cases in which not tolerated (type 2 diabetes patients [2]; reference [17]): approximately 15% | Abdomen - visit 8 ([3]; abdominal circumference, per protocol, week 36, mean (SD), unit as in Table 4): 100.5 (13.7) cm | Hip - 8th visit ([3]; hip measurement, per protocol, week 36, mean (SD), unit as in Table 4): 108.0 (11.6) cm | weight loss ([3]; over the study, vs. GLA p<0.001): 3.0 ± 4.3 kg | Abdomen - change [3, 9]: −2.0 (4.1) cm | BMI - change [3, 9]: 1.0 (1.4) kg/m^2 | Hip - change [3, 9]: −1.6 (4.1) cm | BMI - visit 8 ([3]; per protocol, week 36, mean (SD), unit as in Table 4): 29.3 (5.3) kg/m^2

Insulin glargine
control of postprandial hyperglycemia (type 2 diabetes patients [4]): improved control of postprandial hyperglycemia compared to metformin | Abdomen - change [5]: 1.1 (3.7) cm | Abdomen - visit 8 [5]: 104.3 (10.7) cm | BMI - change [5]: −0.5 (1.3) kg/m^2 | BMI - visit 8 [5]: 29.9 (4.1) kg/m^2 | Hip - 8th visit [5]: 108.6 (9.4) cm | Hip - change [5]: 1.6 (4.1) cm | weight gained [5]: 1.5 ± 3.8 kg | ratio of proinsulin to C-peptide (type 2 diabetes patients [1]): significant reduction | beta-cell function (type 2 diabetes patients [1]; early treatment, compared to standard treatment with MET): improvement in beta-cell function | Insulin-C-peptide ratio - change, 2 h after test meal (type 2 diabetes patients [1]): −24587.4 | Insulin-C-peptide ratio - change, Fasting (type 2 diabetes patients [1]): 46799.3 | Proinsulin-C-peptide ratio - change, 2 h after test meal (type 2 diabetes patients [1]): −2496.6 | Proinsulin-C-peptide ratio - change, Fasting (type 2 diabetes patients [1]): −1174.8 | HOMA - change (type 2 diabetes patients [1]): 77.2 (98.0) | Insulin-proinsulin ratio - change, 2 h after test meal (type 2 diabetes patients [1]): 8.2 (9.4) | Insulin-proinsulin ratio - change, Fasting (type 2 diabetes patients [1]): 16.4 (12.4) | C-peptide - change, 2 h after test meal (type 2 diabetes patients [1]): −0.6 (2.4) nmol/l | C-peptide - change, Fasting (type 2 diabetes patients [1]): −1.2 (1.1) nmol/l | Insulin - change, 2 h after test meal (type 2 diabetes patients [1]): 6.5 (38.4) mU/l | Insulin - change, Fasting (type 2 diabetes patients [1]): 2.7 (6.7) mU/l | Proinsulin - change, 2 h after test meal (type 2 diabetes patients [1]): −11.1 (26.8) pmol/l | Proinsulin - change, Fasting (type 2 diabetes patients [1]): −7.6 (10.8) pmol/l | Insulin-C-peptide ratio - visit 8, 2 h after test meal (type 2 diabetes patients [1]): 59822.8 | Insulin-C-peptide ratio - visit 8, Fasting (type 2 diabetes patients [1]): 80748.4 | Proinsulin-C-peptide ratio - visit 8, 2 h after test meal (type 2 diabetes patients [1]): 3578.2 | Proinsulin-C-peptide ratio - visit 8, Fasting (type 2 diabetes patients [1]): 3537.8 | HOMA - visit 8 (type 2 diabetes patients [1]): 127.9 (99.3) | Insulin-proinsulin ratio - visit 8, 2 h after test meal (type 2 diabetes patients [1]): 20.7 (11.8) | Insulin-proinsulin ratio - visit 8, Fasting (type 2 diabetes patients [1]): 24.5 (11.7) | C-peptide - visit 8, 2 h after test meal (type 2 diabetes patients [1]): 6.7 (3.1) nmol/l | C-peptide - visit 8, Fasting (type 2 diabetes patients [1]): 1.6 (0.9) nmol/l | Insulin - visit 8, 2 h after test meal (type 2 diabetes patients [1]): 62.6 (51.8) mU/l | Insulin - visit 8, Fasting (type 2 diabetes patients [1]): 14.6 (8.8) mU/l | Proinsulin - visit 8, 2 h after test meal (type 2 diabetes patients [1]): 26.8 (29.0) pmol/l | Proinsulin - visit 8, Fasting (type 2 diabetes patients [1]): 5.4 (5.0) pmol/l | serious adverse reactions (type 2 diabetes patients [6]): without serious adverse reactions such as severe hypoglycemias | stable HbA1c level achieved (type 2 diabetes patients [6]): around 6% | number of hypoglycemic events (type 2 diabetes patients [7]): no rise in the number of hypoglycemic events | difference in the AUC TM for BG vs. standard treatment (predominantly metformin therapy) (type 2 diabetes patients [8]): 15% | difference in the AUC TM for BG vs. standard treatment (predominantly metformin therapy) (type 2 diabetes patients [8]; standard deviation 179): 127 mmol*120 min
